Experimental findings from US7491794B2, “Macrocyclic compounds as inhibitors of viral replication” (Intermune, Inc., priority 2003, dated 2009) are described below.

Like-named read-outs stand apart in the source and are kept apart here.

One test addresses T1, NS3-NS4 protease (Hepatitis C virus genotype 1a, UniProt P27958).
T1 construct: Recombinant E. coli or Baculovirus full-length NS3 was diluted to 3.33 μM with assay buffer; made in house; host or cells: E. coli or baculovirus (BV) system
Description: NS3-NS4 protease assay / NS3 inhibition assay, Section C. The format is biochemical. An outline of the steps: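 Full-length NS3 (E. coli, 2 nM, or Baculovirus, 3 nM, in assay) precomplexed with excess NS4A-2 peptide, pre-incubated with compound 10 minutes at room temperature, then RETS1 substrate added. Fluorescence (ex 335/em 495 nm) read kinetically over 30 minutes; IC50s from four-parameter fit converted to Ki via Ki=IC50/(1+[S]/Km).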

Test [1] concerns HCV sub-genomic replicon, GS4.3. Description: Quantitation by ELISA of NPTII in the HCV sub-genomic replicon, GS4.3, Section C. Format: cell-based. The settings on record: Hepatitis C virus. An excerpt:
Quantitation by ELISA of the selectable marker protein, Neomycin phosphotransferase II (NPTII) in the HCV Sub-Genomic Replicon, GS4.3
The HCV sub-genomic replicon (1377/NS3-3′, accession No. AJ242652), stably maintained in HuH-7 hepatoma cells, was created by Lohmann et al. Science 285: 110-113 (1999). The replicon-containing cell culture, designated GS4.3, was obtained from Dr. Christoph Seeger of the Institute for Cancer Research, Fox Chase Cancer Center, Philadelphia, Pa.
GS4.3 cells were maintained at 37° C., 5% CO2, in DMEM (Gibco 11965-092) supplemented with L-glutamine 200 mM (100×) (Gibco25030-081), non-essential amino acids (NEAA)(Biowhittaker 13-114E), heat-inactivated (HI) Fetal Bovine Serum(FBS)(Hyclone SH3007.03) and 750 μg/ml geneticin (G418)(Gibco 10131-035). Cells were sub-divided 1:3 or 4 every 2-3 days.
24 h prior to the assay, GS4.3 cells were collected, counted, and plated in 96-well plates (Costar 3585) at 7500 cells/well in 100 μl standard maintenance medium (above) and incubated in the conditions above. To initiate the assay, culture medium was removed, cells were washed once with PBS (Gibco 10010-023) and 90 μl Assay Medium (DMEM, L-glutamine, NEAA, 10% HI FBS, no G418) was added. Inhibitors were made as a 10× stock in Assay Medium, (3-fold dilutions from 10 μM to […] final concentration, final DMSO concentration 1%), 10 μl were added to duplicate wells, plates were rocked to mix, and incubated as above for 72 h.
An NPTII Elisa kit was obtained from AGDIA, Inc. (Compound direct ELISA test system for Neomycin Phosphotransferase II, PSP 73000/4800). Manufacturer's instructions were followed, with some modifications. 10×PEB-1 lysis buffer was made up to include 500 μM PMSF (Sigma P7626, 50 mM stock in isopropanol). After 72 h incubation, cells were washed once with PBS and 150 μl PEB-1 with PMSF was added per well. Plates were agitated vigorously for 15 minutes, room temperature, then frozen at −70° C. Plates were thawed, lysates were mixed thoroughly, and 100 μl were applied to an NPTII Elisa plate. A standard curve was made. Lysate from DMSO-treated control cells was pooled, serially diluted with PEB-1 with PMSF, and applied to duplicate wells of the ELISA plate, in a range of initial lysate amount of 150u1-2.5 ul. In addition, 100 μl buffer alone was applied in duplicate as a blank. Plates were sealed and gently agitated at room temperature for 2 h. Following capture incubation, the plates were washed 5×300 μl with PBS-T (0.5% Tween-20, PBS-T was supplied in the ELISA kit). For detection, a 1× dilution of enzyme conjugate diluent MRS-2 (5×) was made in PBS-T, into which 1:100 dilutions of enzyme conjugates A and B were added, as per instructions. Plates were resealed, and incubated with agitation, covered, room temperature, for 2 h. The washing was then repeated and 100 μl of room temperature TMB substrate was added. After approximately 30 minutes incubation (room temperature, agitation, covered), the reaction was stopped with 50 μl 3M sulfuric acid. Plates were read at 450 nm on a Molecular Devices Versamax plate reader.
Inhibitor effect was expressed as a percentage of DMSO-treated control signal, and inhibition curves were calculated using a 4-parameter equation: y=A+((B−A)/(1+((C/x)^D))), where C is half-maximal activity or EC50.
(An ELISA detects its analyte on a solid surface through an enzyme-linked reagent.)

[2] abbreviates: GS4.3 cells, 72 h incubation, read-out: EC50.

T1 sequence (P27958 1027-1657): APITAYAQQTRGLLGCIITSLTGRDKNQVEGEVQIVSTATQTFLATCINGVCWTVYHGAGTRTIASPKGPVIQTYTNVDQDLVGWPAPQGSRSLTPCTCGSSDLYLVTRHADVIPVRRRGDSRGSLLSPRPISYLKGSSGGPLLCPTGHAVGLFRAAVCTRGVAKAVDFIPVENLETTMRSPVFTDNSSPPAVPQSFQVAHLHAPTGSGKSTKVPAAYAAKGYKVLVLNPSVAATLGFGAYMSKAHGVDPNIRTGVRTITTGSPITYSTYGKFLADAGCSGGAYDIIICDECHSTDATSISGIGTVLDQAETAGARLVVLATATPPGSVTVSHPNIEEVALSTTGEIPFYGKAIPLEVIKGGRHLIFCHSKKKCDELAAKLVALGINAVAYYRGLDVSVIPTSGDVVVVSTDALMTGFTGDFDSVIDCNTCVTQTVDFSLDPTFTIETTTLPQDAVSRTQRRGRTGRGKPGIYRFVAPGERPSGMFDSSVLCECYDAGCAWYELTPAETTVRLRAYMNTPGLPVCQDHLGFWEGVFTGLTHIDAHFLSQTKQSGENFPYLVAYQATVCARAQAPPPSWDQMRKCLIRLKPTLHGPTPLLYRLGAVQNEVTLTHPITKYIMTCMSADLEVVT

In general, IC50 refers to the point on the concentration scale where inhibition reaches its midpoint. By EC50 is commonly meant the midpoint of the concentration-response curve. As for `CC(C)(C)OC(=O)N[C@H]1CCCCC/C=C\[C@@H]2C[C@@]2(C(=O)NS(=O)(=O)N2CCCC2)NC(=O)[C@@H]2C[C@@H](OC(=O)N3Cc4ccccc4C3)CN2C1=O` [Compound 103, (1S,4R,6S,14S,18R)-1,3-Dihydro-isoindole-2-carboxylic acid 14-tert-butoxycarbonylamino-4-(pyrrolidinosulfonyl-aminocarbonyl)-2,15-dioxo-3,16-diaza-tricyclo[14.3.0.0^4,6]nonadec-7-en-18-yl ester], on NS3-NS4 protease (read-out: NS3-NS4 IC50), the IC50 was < 100 nM. Moreover, the EC50 in test [1] (setting [2]) was < 100 nM.
In the case of `CC(C)(C)OC(=O)N[C@H]1CCCCC/C=C\[C@@H]2C[C@@]2(C(=O)NS(N)(=O)=O)NC(=O)[C@@H]2C[C@@H](OC(=O)N3Cc4ccccc4C3)CN2C1=O` [Compound 122, (1S,4R,6S,14S,18R)-1,3-Dihydro-isoindole-2-carboxylic acid 14-tert-butoxycarbonylamino-4-(aminosulfonyl-aminocarbonyl)-2,15-dioxo-3,16-diaza-tricyclo[14.3.0.0^4,6]nonadec-7-en-18-yl ester], the IC50 on NS3-NS4 protease (read-out: NS3-NS4 IC50) was < 100 nM. Also, the 50% effective concentration (EC50) in test [1] (setting [2]) is < 100 nM.
Regarding `CC(C)(C)OC(=O)N[C@H]1CCCCC/C=C\[C@@H]2C[C@@]2(C(=O)NS(=O)(=O)N2CCN(C(=O)OCC[Si](C)(C)C)CC2)NC(=O)[C@@H]2C[C@@H](OC(=O)N3Cc4ccccc4C3)CN2C1=O` [Compound 119, (1S,4R,6S,14S,18R)-1,3-Dihydro-isoindole-2-carboxylic acid 14-tert-butoxycarbonylamino-4-(4-(2-trimethylsilylethoxycarbonyl)piperazine-1-sulfonyl-aminocarbonyl)-2,15-dioxo-3,16-diaza-tricyclo[14.3.0.0^4,6]nonadec-7-en-18-yl ester], the 50% inhibitory concentration (IC50) at NS3-NS4 protease was < 100 nM. Besides, the EC50 in test [1] (72 h) was < 100 nM.
`CN(C)S(=O)(=O)NC(=O)[C@@]12C[C@H]1/C=C\CCCCC[C@H](NC(=O)OC(C)(C)C)C(=O)N1C[C@H](OC(=O)N3Cc4ccc(Cl)cc4C3)C[C@H]1C(=O)N2` [Compound 113, (1S,4R,6S,14S,18R)-5-Chloro-1,3-Dihydro-isoindole-2-carboxylic acid 14-tert-butoxycarbonylamino-4-(N,N-dimethylsulfonyl-aminocarbonyl)-2,15-dioxo-3,16-diaza-tricyclo[14.3.0.0^4,6]nonadec-7-en-18-yl ester]: at NS3-NS4 protease (read-out: NS3-NS4 IC50), the IC50 was < 100 nM. The concentration for a half-maximal effect (EC50) in test [1] (setting [2]) is < 100 nM.
On to `CC(C)(C)OC(=O)N[C@H]1CCCCC/C=C\[C@@H]2C[C@@]2(C(=O)NS(=O)(=O)NC2CC2)NC(=O)C2C[C@@H](OC(=O)N3Cc4cccc(F)c4C3)CN2C1=O` (stereo partly shown) [Compound 121], for which the IC50 at NS3-NS4 protease (read-out: NS3-NS4 IC50) was < 100 nM. Further, the concentration for a half-maximal effect (EC50) in test [1] (setting [2]) is < 100 nM.
With `CC(C)(C)OC(=O)N[C@H]1CCCCC/C=C\[C@@H]2C[C@@]2(C(=O)NS(=O)(=O)N2CCC2)NC(=O)[C@@H]2C[C@@H](OC(=O)N3Cc4ccccc4C3)CN2C1=O` [Compound 117, (1S,4R,6S,14S,18R)-1,3-Dihydro-isoindole-2-carboxylic acid 14-tert-butoxycarbonylamino-4-(azetidino-sulfonyl-aminocarbonyl)-2,15-dioxo-3,16-diaza-tricyclo[14.3.0.0^4,6]nonadec-7-en-18-yl ester], the IC50 on NS3-NS4 protease (read-out: NS3-NS4 IC50) was < 100 nM. The EC50 in test [1] (setting [2]) is < 100 nM.
For `COc1ccc(NS(=O)(=O)NC(=O)[C@@]23C[C@H]2/C=C\CCCCC[C@H](NC(=O)OC(C)(C)C)C(=O)N2C[C@H](OC(=O)N4Cc5ccccc5C4)C[C@H]2C(=O)N3)cc1` [Compound 129, (1S,4R,6S,14S,18R)-1,3-Dihydro-isoindole-2-carboxylic acid 14-tert-butoxycarbonylamino-4-(4-methoxyphenylaminosulfonyl-aminocarbonyl)-2,15-dioxo-3,16-diaza-tricyclo[14.3.0.0^4,6]nonadec-7-en-18-yl ester], the IC50 on NS3-NS4 protease (read-out: NS3-NS4 IC50) was < 100 nM. In addition, the 50% effective concentration (EC50) in test [1] (setting [2]) was < 100 nM.
In the case of `CC(C)(C)OC(=O)N[C@H]1CCCCC/C=C\[C@@H]2C[C@@]2(C(=O)NS(=O)(=O)NC2CCCCC2)NC(=O)[C@@H]2C[C@@H](OC(=O)N3Cc4ccccc4C3)CN2C1=O` [Compound 135, (1S,4R,6S,14S,18R)-1,3-Dihydro-isoindole-2-carboxylic acid 14-tert-butoxycarbonylamino-4-(cyclohexylaminosulfonyl-aminocarbonyl)-2,15-dioxo-3,16-diaza-tricyclo[14.3.0.0^4,6]nonadec-7-en-18-yl ester], the IC50 on NS3-NS4 protease (read-out: NS3-NS4 IC50) was < 100 nM. The EC50 in test [1] (setting [2]) is < 100 nM.
As to `CC(C)(C)OC(=O)N[C@H]1CCCCC/C=C\[C@@H]2C[C@@]2(C(=O)NS(=O)(=O)N(CCC#N)C2CC2)NC(=O)[C@@H]2C[C@@H](OC(=O)N3Cc4ccccc4C3)CN2C1=O` [Compound 125, (1S,4R,6S,14S,18R)-1,3-Dihydro-isoindole-2-carboxylic acid 14-tert-butoxycarbonylamino-4-(2-cyanoethyl(cyclopropyl)aminosulfonyl-aminocarbonyl)-2,15-dioxo-3,16-diaza-tricyclo[14.3.0.0^4,6]nonadec-7-en-18-yl ester], the IC50 at NS3-NS4 protease (read-out: NS3-NS4 IC50) was < 100 nM. The EC50 in test [1] (setting [2]) was < 100 nM.
On to `CC(C)(C)OC(=O)N[C@H]1CCCCC/C=C\[C@@H]2C[C@@]2(C(=O)NS(=O)(=O)NC2CC2)NC(=O)[C@@H]2C[C@@H](OC(=O)N3Cc4ccccc4C3)CN2C1=O` [Compound 102], for which the concentration for half-maximal inhibition (IC50) on NS3-NS4 protease (read-out: NS3-NS4 IC50) was < 100 nM. In test [1] (setting [2]), the EC50 was < 100 nM.
Consider `CC(C)(C)OC(=O)N[C@H]1CCCCC/C=C\[C@@H]2C[C@@]2(C(=O)NS(=O)(=O)NC2CC2)NC(=O)[C@@H]2C[C@@H](OC(=O)N3Cc4ccc(Cl)cc4C3)CN2C1=O` [Compound 114], for which the IC50 on NS3-NS4 protease (read-out: NS3-NS4 IC50) is < 100 nM. Also, in test [1] (setting [2]), the EC50 is < 100 nM.
On to `CC(C)N(C(C)C)S(=O)(=O)NC(=O)[C@@]12C[C@H]1/C=C\CCCCC[C@H](NC(=O)OC(C)(C)C)C(=O)N1C[C@H](OC(=O)N3Cc4ccccc4C3)C[C@H]1C(=O)N2` [Compound 126, (1S,4R,6S,14S,18R)-1,3-Dihydro-isoindole-2-carboxylic acid 14-tert-butoxycarbonylamino-4-(N,N-diisopropylaminosulfonyl-aminocarbonyl)-2,15-dioxo-3,16-diaza-tricyclo[14.3.0.0^4,6]nonadec-7-en-18-yl ester], for which the half-inhibitory concentration (IC50) at NS3-NS4 protease (read-out: NS3-NS4 IC50) is < 100 nM. For the same compound, the EC50 in test [1] (setting [2]) is < 100 nM.
Take `CC(C)(C)OC(=O)N[C@H]1CCCCC/C=C\[C@@H]2C[C@@]2(C(=O)NS(=O)(=O)N2CCCC2)NC(=O)[C@@H]2C[C@@H](OC(=O)N3CCc4ccccc4C3CN3CCCCC3)CN2C1=O` (stereo partly drawn) [Compound 109, (1S,4R,6S,14S,18R)-1-Piperidin-1-ylmethyl-3,4-dihydro-1H-isoquinoline-2-carboxylic acid 14-tert-butoxycarbonylamino-2,15-dioxo-4-(pyrrolidino-sulfonylaminocarbonyl)-3,16-diaza-tricyclo[14.3.0.0^4,6]nonadec-7-en-18-yl ester]: the concentration for half-maximal inhibition (IC50) at NS3-NS4 protease (read-out: NS3-NS4 IC50) is < 100 nM. In addition, in test [1] (setting [2]), the EC50 was < 1000 nM.
On to `CC(C)(C)OC(=O)N[C@H]1CCCCC/C=C\[C@@H]2C[C@@]2(C(=O)NS(=O)(=O)N2CCCC2)NC(=O)[C@@H]2C[C@@H](OC(=O)N3Cc4ccc(Cl)cc4C3)CN2C1=O` [Compound 115, (1S,4R,6S,14S,18R)-5-Chloro-1,3-Dihydro-isoindole-2-carboxylic acid 14-tert-butoxycarbonylamino-4-(pyrrolidino-sulfonyl-aminocarbonyl)-2,15-dioxo-3,16-diaza-tricyclo[14.3.0.0^4,6]nonadec-7-en-18-yl ester], for which, at NS3-NS4 protease (read-out: NS3-NS4 IC50), the IC50 was < 100 nM. In addition, the EC50 in test [1] (setting [2]) was < 100 nM.
